{"source": "paper PMC9316855", "about": "(Molecules, 2022)", "key": {"[1]": {"details": "4 h; cited from earlier work"}, "[2]": {"details": "24 h; cited from earlier work"}}, "note": "Read-outs that look alike come from different tables or passages of the source."}
{"smiles": "CC(C)C[C@H](NC(=O)[C@H](CC(=O)O)NC(=O)CNC(=O)[C@H](CCCNC(=N)N)NC(=O)[C@H](CC(C)C)NC(=O)[C@H](CC(N)=O)NC(=O)[C@@H]1CCCN1C(=O)[C@@H](NC(=O)[C@H](C)NC(=O)[C@@H](N)CC(N)=O)C(C)C)C(=O)N[C@@H](CCC(N)=O)C(=O)N[C@H](C(=O)N[C@@H](CC(C)C)C(=O)N[C@@H](C)C(=O)N[C@@H](CCC(N)=O)C(=O)N[C@@H](CCCCN)C(=O)N[C@H](C(=O)N[C@@H](C)C(=O)N[C@@H](CCCNC(=N)N)C(=O)N[C@H](C(=O)O)[C@@H](C)O)C(C)C)C(C)C", "note": "[Compound 13, H2N-^1NAVPNLRGDLQVLAQKVAR^20T-OH]", "values": [{"measurement": "peptide remaining intact in mouse serum", "setting": "[1]", "value": 50, "unit": "%"}, {"measurement": "peptide remaining intact in rat serum", "setting": "24 h", "value": "almost completely degraded"}, {"measurement": "peptide remaining intact in rat serum", "setting": "48 h", "value": "undetected"}, {"measurement": "peptide remaining in human plasma", "setting": "[2]", "value": "> 75", "unit": "%"}]}
